Entries after “also recorded” stand apart in the source; their conditions may differ.
Columns and labels:
KP tumors = assay type: in vivo, mouse
Protocol: Kras^LSL-G12D/+; Trp53^flox/flox (referred to as KP) were used to generate lung adenocarcinomas by administering Ad-Cre (Cre recombinase Adenovirus) 5×10^7 PFU as previously described (DuPage et al, 2009; Cortez-Retamozo et al, 2013; Pfirsche et al, 2016).
CTLA-4 mAb (clone—9D9) (Bio X Cell) 100 μg/mouse was administered twice a week over 3 weeks. Rat IgG2a isotype control, anti-trinitrophenol (Clone 2A3) (Bio X Cell) 100 μg/mouse was administered twice a week during 3 weeks.
For VEGFR2 inactivation, KP mice were administered with anti-VEGFR2 (clone DC101, Bio X Cell) twice per week during three weeks.
In order to deplete CD8+ cells, KP mice were administered with anti-CD8α mAb intraperitoneally (clone YTS 169.4, BioXcell) twice per week after the first day of treatment and until the end of the experiments.
In order to deplete IFN-γ, KP mice were administered with anti-IFN-γ mAb intraperitoneally (XMG1.2, Bio X Cell) twice per week after the first day of treatment and until the end of the experiments. To deplete CXCL9, KP mice were administered with anti-CXCL9 mAb intraperitoneally (MIG-2F5.5, Bio X Cell) twice per week after the first day of treatment and until the end of the experiments. […]

KP lung tumor cells = test: Cell survival assay (MTS), KP cells; assay type: cell-based, mouse; settings: increasing concentrations of cisplatin alone or with 2nM 29P
Protocol: The lung adenocarcinoma cell line KP53 F1 was derived from lung tumors of C57BL/6 KP mice and was kindly provided by Dr. S A. Quezada, UCL Cancer Centre (University College London, UK).
(§1) A549 or KP cell survival was analyzed using the CellTiter96® Aqueous One Solution Reagent (Promega #G3582) according to the manufacturer's instructions. Briefly, 1000 cells were seeded into 96-well plated. Cells were treated the following day and the solution reagent was added after 72 hours of treatment. Plates were read using a wavelength of 490 nm.

[1] = tested on: human lung adenocarcinoma (A549) cells; test: Cell survival assay (MTS), A549 cells; assay type: cell-based; settings: increasing concentrations of cisplatin alone or with 2nM 29P
Protocol: A549 and LLC cells were purchased from ATCC. Mouse Lung Endothelial cells (EC) were obtained and cultured as previously described (34).
as §1

[2] = Side effects in C57/BL6 mice: body weight, lymphocytes, creatinine; assay type: in vivo, mouse; settings: Cis^3/anti-PD-1/anti-CTLA-4 and 29P, compared with Cis^6/anti-PD-1/anti-CTLA-4, placebo or single agent 29P
Protocol: FIG. 3 illustrates that 29P treatment sensitizes KP tumors to current immunotherapies and chemotherapies. […] (A, B, E) Representative images of hematoxylin-eosin stained lungs and quantification of number of tumor foci and tumor burden. […] (D) C57/BL6 mice were treated with Placebo, 29P, Cis^6/α-PD-1+α-CTLA-4 and Cis^3/α-PD-1+α-CTLA-4/29P. […] (F) Representative images of hematoxylin-eosin stained lungs (left) and quantification of mouse body weights and tumor burden (right). N.S. Not significant/p>0.05, *p<0.05, **p<0.01, ***p<0.001. (A,B,D-F) ordinary One-way ANOVA with Tukey's multiple comparison test, for not normally distributed data Kruskal-Wallis test with Dunn's multiple comparison test, (C) Mantel-Cox test, n=5-8 per treatment. Scale bars: 5 mm in H&E staining.

KP tumor burdened lung = test: Flow cytometry of lungs bearing KP tumors; assay type: in vivo, mouse; settings: cisplatin treatment
Protocol: Tumors were minced and incubated at 37° C. for 20 min in an enzymatic cocktail containing DNase (0.5 mg/ml, Sigma). Liberase (2 mg/ml, Sigma) in HBSS (Sigma) was used to make a single cell suspension for pancreatic tumors. For breast tumors, collagenase/dispase (1 mg/ml, Sigma) in PBS, was used to make a single cell suspension. Cells were passed through a […] filter (BD Biosciences), washed in PBS supplemented with 2% foetal bovine serum and 2 mM EDTA, counted and used immediately for flow cytometry. Before cells were stained with specific antibodies, nonspecific binding sites were blocked with Fcγ R III/II TruStain fcX (93, Biolegend). Staining was performed in PBS supplemented with 2% foetal bovine serum and 2 mM EDTA. The following fluorochrome-conjugated antibodies were used: anti-CD45 (30-F11), anti-CD3 (145-2C11), anti-CD4 (L3T4), anti-CD8 (53-6.7), anti-CD69 (H1.2F3), anti-CD44 (IM7), anti-CD62L (MEL-14), anti-CD19 (6D5), anti-CD11b (M1/70), anti-F4/80 (BM8) from Biolegend; anti-PD1 (RMP1-30), anti-Gr1 (RB6-8C5) and anti-Ly6C (HK1.4) from eBioscience. Fixable viability dye (FVD) (eBioscience) was used to discriminate between live and dead cells. Acquisition and analyses were performed on a BD LSRII system using BD […] software (BD Biosciences). The percentage of cells were analysed using FlowJo software (version 10.0.8 tree Star). Dead cells were excluded from the analysis on the basis of FVD and SSC gating. Cell doublets were excluded from the analysis by gating for FSC area versus FSC width. CD45+ cells were used to include leukocytes only in the data analysis.

Compound | weight loss side effect (KP tumors; mouse, in vivo) | cisplatin cytotoxicity with 29P addition (MTS cell viability) (KP lung tumor cells) | cisplatin cytotoxicity with 29P addition (MTS cell viability) [1] | body weight [2] | creatinine levels [2] | lymphocyte numbers [2] | anti-tumor effect (KP tumors; KP mice, Cis^6 (cisplatin 6 mg/kg) alone) | T cell (CD4+ and CD8+) numbers (KP tumor burdened lung) | myeloid cell (Gr1+, Natural killer cells, dendritic cells, monocytes) numbers (KP tumor burdened lung) | tumor associated macrophages (KP tumor burdened lung)
CCCCCCOC(=O)N=C(NCCC[C@@H]1NC(=O)[C@@H](C(C)C)N(C)C(=O)[C@H](C)N(C)C(=O)[C@H](C)NC(=O)[C@H](CC(=O)OC)NC(=O)CNC1=O)NC(=O)OCCCCCC [29P, c(*vR(Hoc)2GD(OMe)A*A)] | without apparent adverse weight loss side effects | independent of 29P addition | independent of 29P addition | restored; also recorded: significantly improved parameters | restored; also recorded: significantly improved parameters | restored; also recorded: significantly improved parameters |  |  |  | 
N.N.[Cl][Pt][Cl] [cisplatin] |  |  |  |  |  |  | clear anti-tumor effect | increased | increased | a reduction

— US20240181001A1, “TREATMENT” (Queen Mary University London, priority 2021, published 2024)
